Assay results reported in patent publication US9498463B2, “Compound obtained from gamboge resin, and medical uses of the same” (priority 2010, dated 2016).
In brackets after ≈: the same amount, converted by molar mass. Like-named read-outs stand apart in the source and are kept apart here.

Legend:
[1] = tested on: Human colon adenocarcinoma cell HT-29; assay: cells; conditions: for IC50: HT-29, read-out: IC50 (50% inhibition concentration); for CC50: HT-29, read-out: LC50 (50% lethal concentration)
Excerpt: (§1) In Vitro Anti-Cancer Test
(§2) The in vitro anti-cancer test was primarily used to detect the effect of a candidate drug on cancer cell proliferation. The working principle involved therein is the ability of viable cells to shift alamarBlue (AbD Serotec, UK) from its originally non-fluorescent oxidized state (non-fluorescent, blue) to a reduced form (fluorescent, red) having fluorescence via metabolic reaction. According to the fluorescent data result generated by the alamarBlue reagent thus obtained, the proliferation of the viable cells and cell activity can be quantified for detection.
(§3) In the in vitro anti-cancer tests, a candidate drug was tested at 5 different concentrations of 0.01, 0.1, 1, 10, and 100 μg/ml, and six human cancer cell lines and a normal human cell line were used (see Table 5).

[2] = tested on: Human umbilical venal epithelial cell (HUVEC); assay: cells; conditions: Homo sapiens, HUVEC, read-out: IC50 (50% inhibition concentration)
Excerpt: as §1, §2, §3

[3] = tested on: Human histocytic lymphoma cell U937; assay: cells; conditions: for CC50: U-937, read-out: LC50 (50% lethal concentration)
Excerpt: as §1, §2, §3

[4] = tested on: Human breast adenocarcinoma cell MCF7; assay: cells; conditions: Homo sapiens; for IC50: MCF7, read-out: IC50 (50% inhibition concentration); for CC50: MCF7, read-out: LC50 (50% lethal concentration)
Excerpt: as §1, §2, §3

[5] = tested on: Human promyelocytic leukemia cell HL-60; assay: cells; conditions: for CC50: HL-60, read-out: LC50 (50% lethal concentration)
Excerpt: as §1, §2, §3

in vitro = assay: in vitro
Excerpt: as §1, §2, §3

[6] = tested on: Human lung carcinoma cell A549; assay: cells; conditions: for CC50: A549, read-out: LC50 (50% lethal concentration)
Excerpt: as §1, §2, §3

[7] = tested on: Human hepatocellular carcinoma cell HepG2; assay: cells; conditions: for IC50: HepG2, read-out: IC50 (50% inhibition concentration); for CC50: HepG2, read-out: LC50 (50% lethal concentration)
Excerpt: as §1, §2, §3

[8] = U-937, read-out: IC50 (50% inhibition concentration)
[9] = HL-60, read-out: IC50 (50% inhibition concentration)
[10] = A549, read-out: IC50 (50% inhibition concentration)

SMILES | IC50 [1] [µg/mL] | CC50 [1] [µg/mL] | IC50 [2] [µg/mL] | IC50 [3, 8] [µg/mL] | CC50 [3] [µg/mL] | IC50 [4] [µg/mL] | CC50 [4] [µg/mL] | IC50 [5, 9] [µg/mL] | CC50 [5] [µg/mL] | CC50 (in vitro) [µg/mL] | IC50 [6, 10] [µg/mL] | CC50 [6] [µg/mL] | IC50 [7] [µg/mL] | CC50 [7] [µg/mL] | IC50 ([3]; U-937, read-out: IC50 (50% inhibition concentration), U937) [µg/mL] | IC50 ([5]; HL-60, read-out: IC50 (50% inhibition concentration), HL-60) [µg/mL] | IC50 ([6]; A549, read-out: IC50 (50% inhibition concentration), A549) [µg/mL]
CC(C)=CCC/C(C)=C/Cc1c(O)c(CC=C(C)C)c2c(c1O)C(=O)C1=CC3CC4C(C)(C)O[C@](CC=C(C)C)(C3=O)[C@@]14O2 (stereo in doubt) [Gh-4301, desoxygambogenin] | 13 (≈ 21.6 µM) | 42 (≈ 69.9 µM) | 0.29 (≈ 0.483 µM) | 11 (≈ 18.3 µM) | > 100 | 19 (≈ 31.6 µM) | 56 (≈ 93.2 µM) | 3.5 (≈ 5.83 µM) | > 100 | 1.3 (≈ 2.16 µM) | 0.51 (≈ 0.849 µM) | 6.2 (≈ 10.3 µM) | 12 (≈ 20 µM) | 51 (≈ 84.9 µM) | – | – | –
CC(C)=CCC[C@]1(C)C=Cc2c(O)c3c(c(CC=C(C)C)c2O1)O[C@]12C(=C[C@@H]4CC1C(C)(C)O[C@]2(C/C=C(/CO)C(=O)O)C4=O)C3=O [Gh-1601-A, 30-hydroxygambogic acid] | – | – | – | – | – | – | – | – | 3 (≈ 4.65 µM) | 5.4 (≈ 8.38 µM) | – | – | – | – | 0.09 (≈ 0.14 µM) | – | –
CC(C)=CCC[C@@]1(C)C=Cc2c(O)c3c(c(CC=C(C)C)c2O1)O[C@]12C(=C[C@@H]4CC1C(C)(C)O[C@]2(C/C=C(/CO)C(=O)O)C4=O)C3=O [Gh-1602, 30-hydroxyepigambogic acid] | – | – | – | – | – | – | 4 (≈ 6.2 µM) | – | – | 0.94 (≈ 1.46 µM) | – | – | – | – | – | 1 (≈ 1.55 µM) | 0.4 (≈ 0.62 µM)
CC(C)=CCC[C@]1(C)C=Cc2c(O)c3c(c(CC=C(C)C)c2O1)O[C@]12C(=C[C@@H]4CC1C(C)(C)O[C@]2(C/C=C(\C)C(=O)O)C4=O)C3=O [Gh-1641, isogambogic acid] | 1.4 (≈ 2.23 µM) | 4.4 (≈ 7 µM) | 0.18 (≈ 0.286 µM) | 9.4 (≈ 15 µM) | 36 (≈ 57.3 µM) | 1.7 (≈ 2.7 µM) | 33 (≈ 52.5 µM) | 8 (≈ 12.7 µM) | 32 (≈ 50.9 µM) | 1.3 (≈ 2.07 µM) | 0.47 (≈ 0.748 µM) | 3 (≈ 4.77 µM) | 0.86 (≈ 1.37 µM) | 4.5 (≈ 7.16 µM) | – | – | –
CC(C)=CCC[C@@]1(C)C=Cc2c(O)c3c(c(CC=C(C)C)c2O1)O[C@]12C(=C[C@@H]4CC1C(C)(C)O[C@]2(C/C=C(\C)C(=O)O)C4=O)C3=O [Gh-1642, epiisogambogic acid] | 1.9 (≈ 3.02 µM) | 4.8 (≈ 7.63 µM) | 0.18 (≈ 0.286 µM) | 8.8 (≈ 14 µM) | 33 (≈ 52.5 µM) | 2.4 (≈ 3.82 µM) | 29 (≈ 46.1 µM) | 6 (≈ 9.54 µM) | 35 (≈ 55.7 µM) | 1.3 (≈ 2.07 µM) | 0.51 (≈ 0.811 µM) | 2.8 (≈ 4.45 µM) | 1.1 (≈ 1.75 µM) | 5.3 (≈ 8.43 µM) | – | – | –
CC(C)=CCc1c2c(c(O)c3c1O[C@]14C(=C[C@@H]5CC1C(C)(C)O[C@]4(C/C=C(\C)C=O)C5=O)C3=O)C=CC(C)(C)O2 [Gh-2501, isomorellin] | 2.1 (≈ 3.86 µM) | 4 (≈ 7.34 µM) | 0.26 (≈ 0.477 µM) | 0.9 (≈ 1.65 µM) | 3.1 (≈ 5.69 µM) | 1.3 (≈ 2.39 µM) | 3.7 (≈ 6.79 µM) | 1 (≈ 1.84 µM) | 4 (≈ 7.34 µM) | 1.8 (≈ 3.3 µM) | 0.61 (≈ 1.12 µM) | 2.1 (≈ 3.86 µM) | 2.2 (≈ 4.04 µM) | 4.5 (≈ 8.26 µM) | – | – | –
CC(C)=CCC/C(C)=C/Cc1c(O)c(CC=C(C)C)c2c(c1O)C(=O)C1=C[C@@H]3CC4C(C)(C)O[C@](C/C=C(/C)C(=O)O)(C3=O)[C@@]14O2 [Gh-2505, gambogenic acid] | 2.1 (≈ 3.33 µM) | 4.4 (≈ 6.98 µM) | 0.28 (≈ 0.444 µM) | 1.1 (≈ 1.74 µM) | 3.7 (≈ 5.87 µM) | 1.9 (≈ 3.01 µM) | 19 (≈ 30.1 µM) | 0.75 (≈ 1.19 µM) | 7.2 (≈ 11.4 µM) | 2.3 (≈ 3.65 µM) | 0.62 (≈ 0.983 µM) | 12 (≈ 19 µM) | 2.1 (≈ 3.33 µM) | 6.5 (≈ 10.3 µM) | – | – | –
